Experimental data: patent US8802849B2, “Tricyclic benzo[4,5]thieno-[2,3-d]pyrimidine-4-yl-amin derivatives, their salts, process for producing the compounds and their pharmaceutical use” (Vichem Chemie Kutató Kft., priority 2008, dated 2014)

Tests used:
[1] = biological target: SRPK1 (Homo sapiens, UniProt Q96SB4); assay: SRPK1 kinase assay; format: biochemical; conditions: 10 μM compound; read-out: SRPK1 percent of inhibition
Description: (§1) General description of the kinase assays: the kinase activity was assayed in 96-well microtiter plates at a final compound concentration of 10 μM in a total volume of 50 μl. Compounds were dissolved in 100% DMSO to prepare a 10 mM stock solution and than diluted with buffer to reach a 10 μM (or the required) final concentration. The kinase concentration was used to yield 10% ATP turn over. The ATP concentration was used at the KmATP and 12.5 μCi/ml adenosine 5′[γ-33P]triphosphate. The substrate concentration was used at 5 fold excess over the Km for the substrate. The reaction was incubated for 1 hour at room temperature and stopped by addition of 10 μl 50 mM EDTA. The assay was transferred to a 96 well MAPH filter plate (Millipore). The radioactivity was counted on a Microbeta microplate counter.

[2] = biological target: P56Lck (Homo sapiens, UniProt P06239); assay: P56Lck kinase assay; format: biochemical; conditions: 10 μM compound; read-out: P56Lck percent of inhibition
Description: as §1

[3] = biological target: MAPK-ERK1 (Homo sapiens, UniProt P27361); assay: MAPK-ERK1 kinase assay; format: biochemical; conditions: 10 μM compound; read-out: MAPK-ERK1 percent of inhibition
Description: as §1

[4] = biological target: cMet (Homo sapiens, UniProt P08581); assay: cMet kinase assay; format: biochemical; conditions: 10 μM compound; read-out: cMet percent of inhibition
Description: as §1

[5] = biological target: Abl (Homo sapiens, UniProt P00519); assay: Abl kinase assay; format: biochemical; conditions: 10 μM compound; read-out: Abl percent of inhibition
Description: as §1

[6] = biological target: c-Src (Homo sapiens, UniProt P12931); assay: c-Src kinase assay; format: biochemical; conditions: 10 μM compound; read-out: c-Src percent of inhibition
Description: as §1

[7] = biological target: GSK-3beta (Homo sapiens, UniProt P49841); assay: GSK-3beta kinase assay; format: biochemical; conditions: 10 μM compound; read-out: GSK-3beta percent of inhibition
Description: as §1

[8] = biological target: EGFR (Homo sapiens, UniProt P00533); assay: EGFR kinase assay (33P-ATP filter plate); format: biochemical; conditions: for inhibition at 10 µM: 10 μM compound, read-out: EGFR percent of inhibition
Description: as §1

[9] = biological target: RSK1 (Homo sapiens, UniProt Q15418); assay: RSK1 kinase assay; format: biochemical; conditions: 10 μM compound; read-out: RSK1 percent of inhibition
Description: as §1

[10] = biological target: PDGFR-beta (Homo sapiens, UniProt P09619); assay: PDGFR-beta kinase assay; format: biochemical; conditions: 10 μM compound; read-out: PDGFR-beta percent of inhibition
Description: as §1

[11] = biological target: Jnk1a1 (Homo sapiens, UniProt P45983); assay: Jnk1a1 kinase assay; format: biochemical; conditions: 10 μM compound; read-out: Jnk1a1 percent of inhibition
Description: as §1

[12] = biological target: T1, IKK-beta (Homo sapiens, UniProt O14920); assay: IKK-beta kinase assay; format: biochemical; conditions: 10 μM compound; read-out: IKK-beta percent of inhibition
T1 sequence (O14920 1-756): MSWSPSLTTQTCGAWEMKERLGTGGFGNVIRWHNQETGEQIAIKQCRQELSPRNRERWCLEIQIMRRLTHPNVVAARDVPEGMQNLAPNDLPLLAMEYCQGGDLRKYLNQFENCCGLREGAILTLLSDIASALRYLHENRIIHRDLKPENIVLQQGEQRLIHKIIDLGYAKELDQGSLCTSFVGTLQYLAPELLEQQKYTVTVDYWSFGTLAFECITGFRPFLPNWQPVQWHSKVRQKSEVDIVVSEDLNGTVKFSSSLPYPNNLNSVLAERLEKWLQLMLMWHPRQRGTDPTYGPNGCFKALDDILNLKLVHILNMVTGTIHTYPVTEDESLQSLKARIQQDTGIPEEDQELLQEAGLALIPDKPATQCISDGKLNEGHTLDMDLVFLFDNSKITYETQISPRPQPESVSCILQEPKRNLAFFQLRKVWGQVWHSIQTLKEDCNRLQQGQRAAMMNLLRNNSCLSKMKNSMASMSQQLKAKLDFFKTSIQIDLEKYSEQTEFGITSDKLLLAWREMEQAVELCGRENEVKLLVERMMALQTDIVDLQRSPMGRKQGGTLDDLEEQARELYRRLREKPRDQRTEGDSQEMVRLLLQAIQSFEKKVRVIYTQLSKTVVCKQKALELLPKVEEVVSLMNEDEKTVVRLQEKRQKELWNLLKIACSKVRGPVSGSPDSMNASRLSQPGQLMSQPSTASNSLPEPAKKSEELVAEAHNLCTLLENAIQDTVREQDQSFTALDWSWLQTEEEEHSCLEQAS
Description: as §1

[13] = biological target: Kit (Homo sapiens, UniProt P10721); assay: Kit kinase assay; format: biochemical; conditions: 10 μM compound; read-out: Kit percent of inhibition
Description: as §1

[14] = biological target: c-Raf (Homo sapiens, UniProt P04049); assay: c-Raf kinase assay; format: biochemical; conditions: 10 μM compound; read-out: c-Raf percent of inhibition
Description: as §1

[15] = biological target: InsR (Homo sapiens, UniProt P06213); assay: InsR kinase assay; format: biochemical; conditions: 10 μM compound; read-out: InsR percent of inhibition
Description: as §1

[16] = biological target: P70S6K (Homo sapiens, UniProt P23443); assay: P70S6K kinase assay; format: biochemical; conditions: 10 μM compound; read-out: P70S6K percent of inhibition
Description: as §1

[17] = biological target: ROCK2 (Homo sapiens, UniProt O75116); assay: ROCK2 kinase assay; format: biochemical; conditions: 10 μM compound; read-out: ROCK2 percent of inhibition
Description: as §1

[18] = biological target: CDK2/CycA (Homo sapiens, UniProt P24941); assay: CDK2/CycA kinase assay; format: biochemical; conditions: 10 μM compound; read-out: CDK2/CycA percent of inhibition
Description: as §1

[19] = biological target: CK1-alpha (Homo sapiens, UniProt P48729); assay: CK1-alpha kinase assay; format: biochemical; conditions: 10 μM compound; read-out: CK1-alpha percent of inhibition
Description: as §1

[20] = biological target: AKT1/PKBa (Homo sapiens, UniProt P31749); assay: AKT1/PKBa kinase assay; format: biochemical; conditions: 10 μM compound; read-out: AKT1/PKBa percent of inhibition
Description: as §1

P70S6K, sequence (P23443 whole entry): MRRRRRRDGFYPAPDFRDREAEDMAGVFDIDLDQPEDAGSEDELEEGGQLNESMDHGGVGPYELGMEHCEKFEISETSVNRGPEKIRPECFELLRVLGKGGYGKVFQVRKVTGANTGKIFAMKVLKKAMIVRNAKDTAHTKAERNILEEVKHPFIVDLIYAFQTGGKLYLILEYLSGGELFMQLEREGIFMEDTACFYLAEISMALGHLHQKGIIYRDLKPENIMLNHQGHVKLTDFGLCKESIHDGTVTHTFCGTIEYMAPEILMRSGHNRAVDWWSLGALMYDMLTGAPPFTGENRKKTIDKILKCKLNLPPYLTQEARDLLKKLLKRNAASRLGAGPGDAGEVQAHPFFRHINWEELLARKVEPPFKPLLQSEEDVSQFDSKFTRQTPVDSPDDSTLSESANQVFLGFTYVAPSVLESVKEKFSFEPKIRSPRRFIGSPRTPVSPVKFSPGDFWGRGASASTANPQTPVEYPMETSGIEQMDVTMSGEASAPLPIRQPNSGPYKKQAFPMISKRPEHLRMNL
PDGFR-beta, sequence (P09619 33-1106, species assumed): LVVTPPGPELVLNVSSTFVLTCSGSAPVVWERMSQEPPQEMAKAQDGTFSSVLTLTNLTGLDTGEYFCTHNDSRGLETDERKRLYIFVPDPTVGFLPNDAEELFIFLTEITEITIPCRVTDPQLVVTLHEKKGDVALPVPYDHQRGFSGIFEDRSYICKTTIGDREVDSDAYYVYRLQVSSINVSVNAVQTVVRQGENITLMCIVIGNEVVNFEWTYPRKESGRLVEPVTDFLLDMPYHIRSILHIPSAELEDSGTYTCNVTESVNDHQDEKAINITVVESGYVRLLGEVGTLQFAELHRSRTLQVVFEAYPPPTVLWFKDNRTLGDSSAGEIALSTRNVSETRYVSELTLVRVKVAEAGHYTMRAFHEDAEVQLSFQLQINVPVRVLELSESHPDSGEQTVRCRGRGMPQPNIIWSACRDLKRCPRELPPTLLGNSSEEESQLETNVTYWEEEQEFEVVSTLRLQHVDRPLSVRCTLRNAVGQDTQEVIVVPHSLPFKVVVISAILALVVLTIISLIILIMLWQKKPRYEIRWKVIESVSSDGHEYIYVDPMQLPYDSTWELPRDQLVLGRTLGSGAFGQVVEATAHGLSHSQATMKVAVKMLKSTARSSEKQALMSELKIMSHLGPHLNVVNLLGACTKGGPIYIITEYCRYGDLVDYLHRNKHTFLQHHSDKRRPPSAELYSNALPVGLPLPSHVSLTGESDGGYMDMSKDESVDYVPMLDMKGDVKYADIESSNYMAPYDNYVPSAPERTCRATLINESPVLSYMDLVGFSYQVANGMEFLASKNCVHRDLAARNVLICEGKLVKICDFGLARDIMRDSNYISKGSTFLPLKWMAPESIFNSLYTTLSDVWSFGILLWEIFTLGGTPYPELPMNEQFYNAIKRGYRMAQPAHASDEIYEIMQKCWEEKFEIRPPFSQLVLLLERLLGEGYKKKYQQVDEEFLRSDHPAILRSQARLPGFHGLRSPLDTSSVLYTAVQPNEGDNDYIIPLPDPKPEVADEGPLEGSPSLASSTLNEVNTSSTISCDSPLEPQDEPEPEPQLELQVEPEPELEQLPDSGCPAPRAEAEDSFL
Kit, sequence (P10721 26-976, species assumed): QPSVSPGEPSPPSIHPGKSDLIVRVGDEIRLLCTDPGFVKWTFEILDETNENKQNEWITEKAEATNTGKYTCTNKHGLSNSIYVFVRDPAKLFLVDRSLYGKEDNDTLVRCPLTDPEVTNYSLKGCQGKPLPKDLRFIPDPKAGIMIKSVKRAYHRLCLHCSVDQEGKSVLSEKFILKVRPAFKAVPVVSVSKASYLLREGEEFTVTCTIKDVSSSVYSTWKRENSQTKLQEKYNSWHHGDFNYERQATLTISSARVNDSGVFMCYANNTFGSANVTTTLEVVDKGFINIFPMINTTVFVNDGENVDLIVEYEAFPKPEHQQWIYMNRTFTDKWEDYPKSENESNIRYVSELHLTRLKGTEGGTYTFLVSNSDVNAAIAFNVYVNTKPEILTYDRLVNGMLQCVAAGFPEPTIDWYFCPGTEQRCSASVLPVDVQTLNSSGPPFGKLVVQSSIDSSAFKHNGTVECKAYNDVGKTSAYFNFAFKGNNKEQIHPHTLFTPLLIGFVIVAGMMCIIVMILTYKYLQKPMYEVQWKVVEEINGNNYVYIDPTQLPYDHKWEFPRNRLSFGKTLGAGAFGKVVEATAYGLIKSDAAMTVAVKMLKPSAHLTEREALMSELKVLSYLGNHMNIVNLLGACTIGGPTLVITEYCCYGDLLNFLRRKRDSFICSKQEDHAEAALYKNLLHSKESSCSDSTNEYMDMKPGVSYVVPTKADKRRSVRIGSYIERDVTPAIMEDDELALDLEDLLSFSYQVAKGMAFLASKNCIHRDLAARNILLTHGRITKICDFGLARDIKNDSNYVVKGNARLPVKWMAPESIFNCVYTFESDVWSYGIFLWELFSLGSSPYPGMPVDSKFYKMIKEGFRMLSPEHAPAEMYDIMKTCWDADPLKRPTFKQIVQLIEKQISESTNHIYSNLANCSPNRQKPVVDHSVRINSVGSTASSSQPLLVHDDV
Abl, sequence (P00519 whole entry, species assumed): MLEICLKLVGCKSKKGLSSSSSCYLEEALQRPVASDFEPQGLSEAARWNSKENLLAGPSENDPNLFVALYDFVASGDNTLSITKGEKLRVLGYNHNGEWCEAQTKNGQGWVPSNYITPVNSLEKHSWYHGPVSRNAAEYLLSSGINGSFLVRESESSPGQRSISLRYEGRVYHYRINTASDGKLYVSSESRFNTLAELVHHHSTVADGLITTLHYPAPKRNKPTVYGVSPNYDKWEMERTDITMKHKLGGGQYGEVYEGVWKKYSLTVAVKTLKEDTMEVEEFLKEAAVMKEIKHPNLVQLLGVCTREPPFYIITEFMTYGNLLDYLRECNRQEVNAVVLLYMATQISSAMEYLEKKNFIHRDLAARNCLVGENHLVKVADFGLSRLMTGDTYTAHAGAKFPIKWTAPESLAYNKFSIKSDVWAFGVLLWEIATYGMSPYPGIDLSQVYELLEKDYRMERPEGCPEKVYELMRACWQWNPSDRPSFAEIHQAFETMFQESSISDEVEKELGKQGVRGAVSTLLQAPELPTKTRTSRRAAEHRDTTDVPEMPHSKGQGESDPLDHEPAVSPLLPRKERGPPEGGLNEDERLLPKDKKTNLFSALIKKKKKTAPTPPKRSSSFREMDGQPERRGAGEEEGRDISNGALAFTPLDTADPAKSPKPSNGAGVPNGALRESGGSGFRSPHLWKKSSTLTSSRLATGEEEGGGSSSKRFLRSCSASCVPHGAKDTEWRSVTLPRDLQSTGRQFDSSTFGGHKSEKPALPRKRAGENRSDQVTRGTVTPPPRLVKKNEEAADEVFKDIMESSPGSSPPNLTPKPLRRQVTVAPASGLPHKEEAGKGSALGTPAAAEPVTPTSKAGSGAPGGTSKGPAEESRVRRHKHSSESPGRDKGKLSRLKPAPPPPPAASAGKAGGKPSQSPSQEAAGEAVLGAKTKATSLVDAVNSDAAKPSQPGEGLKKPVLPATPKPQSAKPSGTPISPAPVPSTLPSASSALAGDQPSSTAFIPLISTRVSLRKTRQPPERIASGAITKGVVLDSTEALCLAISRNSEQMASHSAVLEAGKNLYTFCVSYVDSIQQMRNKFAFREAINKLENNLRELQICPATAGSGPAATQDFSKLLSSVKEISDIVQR
SRPK1, sequence (Q96SB4 whole entry, species assumed): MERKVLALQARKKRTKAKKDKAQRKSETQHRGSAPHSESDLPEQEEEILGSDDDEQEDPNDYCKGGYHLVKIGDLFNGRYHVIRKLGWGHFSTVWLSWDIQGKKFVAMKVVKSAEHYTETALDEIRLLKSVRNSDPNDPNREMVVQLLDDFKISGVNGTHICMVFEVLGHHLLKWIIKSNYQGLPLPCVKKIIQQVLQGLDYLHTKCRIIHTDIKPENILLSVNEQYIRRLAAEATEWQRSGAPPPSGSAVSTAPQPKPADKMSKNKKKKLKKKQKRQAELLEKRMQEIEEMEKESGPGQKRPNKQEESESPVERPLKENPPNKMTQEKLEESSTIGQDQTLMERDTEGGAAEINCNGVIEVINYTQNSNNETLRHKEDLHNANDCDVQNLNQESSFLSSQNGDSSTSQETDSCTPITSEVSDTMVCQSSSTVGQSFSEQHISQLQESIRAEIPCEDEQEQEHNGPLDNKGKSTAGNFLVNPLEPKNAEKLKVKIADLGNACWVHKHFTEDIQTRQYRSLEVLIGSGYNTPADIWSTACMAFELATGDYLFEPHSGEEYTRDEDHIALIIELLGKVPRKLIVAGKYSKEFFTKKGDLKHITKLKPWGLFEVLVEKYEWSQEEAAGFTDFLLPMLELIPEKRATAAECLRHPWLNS
GSK-3beta, sequence (P49841 whole entry, species assumed): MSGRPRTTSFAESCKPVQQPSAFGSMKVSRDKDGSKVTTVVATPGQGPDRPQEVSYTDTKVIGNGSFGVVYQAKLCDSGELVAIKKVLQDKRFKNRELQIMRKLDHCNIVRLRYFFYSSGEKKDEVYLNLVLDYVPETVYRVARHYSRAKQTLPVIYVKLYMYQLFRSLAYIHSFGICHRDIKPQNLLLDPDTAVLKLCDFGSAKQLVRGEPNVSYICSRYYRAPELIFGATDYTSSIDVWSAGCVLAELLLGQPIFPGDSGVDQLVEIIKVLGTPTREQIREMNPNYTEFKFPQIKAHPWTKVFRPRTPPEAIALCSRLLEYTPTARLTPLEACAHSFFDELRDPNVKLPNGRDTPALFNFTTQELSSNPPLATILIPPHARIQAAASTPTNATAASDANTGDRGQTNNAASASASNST

| SMILES | inhibition at 10 µM [1] | inhibition at 10 µM [2] | inhibition at 10 µM [3] | inhibition at 10 µM [4] | inhibition at 10 µM [5] | inhibition at 10 µM [6] | inhibition at 10 µM [7] | inhibition at 10 µM [8] | inhibition at 10 µM [9] | inhibition at 10 µM [10] | inhibition at 10 µM [11] | inhibition at 10 µM [12] | inhibition at 10 µM [13] | inhibition at 10 µM [14] | inhibition at 10 µM [15] | inhibition at 10 µM [16] | inhibition at 10 µM [17] | inhibition at 10 µM [18] | inhibition at 10 µM [19] | inhibition at 10 µM [20] | other results |
| --- | --- | --- | --- | --- | --- | --- | --- | --- | --- | --- | --- | --- | --- | --- | --- | --- | --- | --- | --- | --- | --- |
| Brc1cccc(Nc2nc(C3CC3)nc3sc4ccccc4c23)c1 [Compound 18, (2-Cyclopropyl-benzo[4,5]thieno[2,3-d]pyrimidin-4-yl)-(3-bromo-phenyl)-amine] | 12% | 11% | -6% | -7% | -2% | 22% | 0% | 87% | -4% | 0% | -7% | 3% | 5% | -8% | 5% | 2% | 4% | -2% | 10% | 0% | melting point: 180 °C |
| Fc1ccc(Nc2ncnc3sc4c(c23)CCCC4)cc1 [Compound 6, (4-Fluoro-phenyl)-(5,6,7,8-tetrahydro-benzo[4,5]thieno[2,3-d]pyrimidin-4-yl)-amine] | 9% | 11% | 5% | 4% | 4% | 12% | -1% | 99% | 19% | -12% | 15% | 8% | 7% | 12% | 44% | -7% | 6% | 11% | 7% | -8% | IC50 ([8]; EGFR-PTK assay): 10.5 nM |
| Oc1cccc(Nc2nc(C3CC3)nc3sc4ccccc4c23)c1 [Compound 19, 3-(2-Cyclopropyl-benzo[4,5]thieno[2,3-d]pyrimidin-4-ylamino)-phenol] | 3% | 3% | 2% | -12% | 3% | 11% | 7% | 54% | -11% | -1% | -2% | 12% | 3% | -4% | 11% | 3% | 7% | -12% | 9% | -5% | melting point: 222 °C |
